Publication PMC8344243, “Design, synthesis, docking, ADMET studies, and anticancer evaluation of new 3-methylquinoxaline derivatives as VEGFR-2 inhibitors and apoptosis inducers” (Journal of Enzyme Inhibition and Medicinal Chemistry, 2021)
“And” between values parts separate entries of the source, which are not always exact repeats. Equal entries are not always repeated. Where two headings read alike, the source gives them in different places.

Key:
MCF-7 [1] = system: MCF-7; design: method as in PMID 33721808, PMID 34023640; settings: lead compounds of previous work ref 63, 64, read-out: Cytotoxicity on cancer cells IC50, MCF-7; cited from earlier work
HepG2 [2] = system: HepG2; design: method as in PMID 33721808, PMID 34023640; settings: lead compounds of previous work ref 63, 64, read-out: Cytotoxicity on cancer cells IC50, HepG2; cited from earlier work
human VEGFR-2 [3] = biological target: T1, human VEGFR-2 (Homo sapiens, UniProt P35968); design: method as in PMID 33721808, PMID 34023640; settings: lead compounds of previous work ref 63, 64; cited from earlier work
T1 construct: endogenous in cells; host or cells: HepG2
T1 sequence (P35968 20-1356): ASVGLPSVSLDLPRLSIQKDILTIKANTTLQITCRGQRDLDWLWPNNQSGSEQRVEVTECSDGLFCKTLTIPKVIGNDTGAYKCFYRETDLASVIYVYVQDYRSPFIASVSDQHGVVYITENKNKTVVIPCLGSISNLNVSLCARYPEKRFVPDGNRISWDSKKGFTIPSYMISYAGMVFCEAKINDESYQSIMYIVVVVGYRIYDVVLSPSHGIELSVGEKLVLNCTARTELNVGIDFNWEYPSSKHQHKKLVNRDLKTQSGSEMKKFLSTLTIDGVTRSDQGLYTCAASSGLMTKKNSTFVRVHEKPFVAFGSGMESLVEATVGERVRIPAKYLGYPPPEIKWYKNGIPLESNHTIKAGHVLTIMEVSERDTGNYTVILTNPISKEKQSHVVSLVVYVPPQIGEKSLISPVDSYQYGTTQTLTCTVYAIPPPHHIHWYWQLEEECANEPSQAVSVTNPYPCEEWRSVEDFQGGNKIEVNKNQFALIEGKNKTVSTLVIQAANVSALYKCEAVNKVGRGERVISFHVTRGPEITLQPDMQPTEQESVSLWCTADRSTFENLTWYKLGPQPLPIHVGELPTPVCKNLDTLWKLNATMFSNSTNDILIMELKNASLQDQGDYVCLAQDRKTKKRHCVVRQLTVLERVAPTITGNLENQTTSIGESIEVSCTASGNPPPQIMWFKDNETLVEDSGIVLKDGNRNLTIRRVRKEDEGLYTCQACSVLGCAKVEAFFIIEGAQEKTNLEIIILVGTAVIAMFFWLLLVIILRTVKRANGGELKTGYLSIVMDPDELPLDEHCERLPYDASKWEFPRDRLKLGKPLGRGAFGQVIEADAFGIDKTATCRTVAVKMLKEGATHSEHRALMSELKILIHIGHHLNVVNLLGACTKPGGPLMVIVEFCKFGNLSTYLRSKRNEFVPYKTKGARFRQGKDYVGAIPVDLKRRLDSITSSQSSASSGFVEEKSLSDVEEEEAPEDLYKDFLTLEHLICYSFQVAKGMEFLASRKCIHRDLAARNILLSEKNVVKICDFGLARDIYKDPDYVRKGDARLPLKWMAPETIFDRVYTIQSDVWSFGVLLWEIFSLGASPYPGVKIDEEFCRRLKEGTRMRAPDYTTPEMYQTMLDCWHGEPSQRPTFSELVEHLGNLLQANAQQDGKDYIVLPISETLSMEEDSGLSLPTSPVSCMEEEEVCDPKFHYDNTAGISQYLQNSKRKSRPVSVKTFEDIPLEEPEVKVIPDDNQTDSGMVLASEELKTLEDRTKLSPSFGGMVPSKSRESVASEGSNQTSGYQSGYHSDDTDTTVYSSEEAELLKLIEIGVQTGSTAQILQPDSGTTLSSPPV

BAX = BAX expression level in HepG2 cells (Western blot); type: cell-based
Procedure: (§1) In this study, BAX and Bcl-2 expression levels in the HepG2 cell line after the treatment with compound 27a were determined by quantitative Western blotting. […] Also, it decreased the Bcl-2 level by 2-fold less than the control cells. In addition, the BAX/Bcl-2 ratio was increased 5-fold in the treated cells compared to the control cell (Table 4 and Figure 6). Meanwhile, compound 27a increased BAX/Bcl-2 ratio, it could trigger apoptosis in the experienced cells[90]^,[91].

HepG2 [4] = assay: MTT anti-proliferative assay, HepG2; type: cell-based; settings: Homo sapiens, read-out: Cytotoxicity on cancer cells IC50, HepG2
Procedure: (§2) In vitro cytotoxic activities of the synthesised compounds were evaluated against two different cancer cell lines; breast cancer (MCF-7) and hepatocellular carcinoma (HepG2) using standard MTT colorimetric assay as described by Mosmann[78]^,[79]. […].
(§3) The in vitro antiproliferative activities were assessed using the MTT assay protocol[78]^,[79]^,[95]. As shown in Supplementary Data.

caspase-3 = assay: Active caspase-3 level in HepG2 cells (Western blot); type: cell-based; settings: 4.5 µM, 24 h
BAX/Bcl-2 ratio = BAX/Bcl-2 ratio in HepG2 cells (Western blot); type: cell-based
Procedure: as §1

caspase-9 = assay: Active caspase-9 level in HepG2 cells (Western blot); type: cell-based; settings: 4.5 µM, 24 h
MCF-7 [5] = assay: MTT anti-proliferative assay, MCF-7; type: cell-based; settings: Homo sapiens, MCF7; MCF-7, MTT assay; read-out: Cytotoxicity on cancer cells IC50, MCF-7
Procedure: as §2, §3

HepG2 cells [6] = assay: Flow cytometry cell cycle analysis; type: cell-based; settings: 4.5 µM, 24 h
Procedure: The cell cycle parameters of the incubated cells were compared with untreated control cells (Table 2 and Figure 4).

human VEGFR-2 [7] = biological target: T1, human VEGFR-2; assay: In vitro VEGFR-2 enzyme inhibition assay (ELISA kit, HepG2 cell line); type: biochemical; settings: human VEGFR-2 in HepG2 cell line
Description: The synthesised compounds were estimated for their in vitro inhibition on human VEGFR-2 in HepG2 cell line; using ELISA kit[96] as described in Supplementary Data.

HepG2 cells [8] = assay: Annexin V and PI double staining apoptosis assay; type: cell-based; settings: 4.5 µM, 24 h
Procedure: As compound 27a produced a high accumulation of HepG2 cells at the G2/M phase, such compound was further investigated for its apoptotic effect using Annexin V and PI double staining assay. In such a procedure, HepG2 cells were treated with compound 27a at a concentration of 4.5 µM and incubated for 24 h.
Apoptosis analysis for compound 27a in HepG2 cells was carried out using Annexin V-FITC as shown in Supplementary Data[30]^,[86].

[9] = Cytotoxicity against primary rat hepatocytes (normal hepatic cells); type: cell-based; settings: rat, primary rat hepatocytes
Description: (§4) It is of high importance for anticancer agents to have minimum side effects on normal cells. […].

primary rat hepatocytes = assay: as above; type: cell-based; settings: HepG2 vs primary rat hepatocytes
Description: as §4

Bcl-2 = Bcl-2 expression level in HepG2 cells (Western blot); type: cell-based
Procedure: as §1

SMILES: O=C(Cn1c(=O)c2nncn2c2ccccc21)Nc1ccc(C(=O)Nc2ccc(Cl)cc2)cc1 [Compound 7]
- IC50 (MCF-7 [1]): 7.2 µM
- IC50 (HepG2 [2]): 4.1 µM

SMILES: COc1ccc(NC(=O)c2ccc(NC(=O)CSc3nnc4c5nncn5c5ccccc5n34)cc2)cc1 [Compound 8]
- IC50 (MCF-7 [1]): 4.4 µM
- IC50 (human VEGFR-2 [3]): 0.0032 µM
- IC50 (HepG2 [2]): 3.3 µM

SMILES: Cc1nc2ccccc2n(CC(=O)Nc2ccc(C(=O)NC(C)(C)C)cc2)c1=O [Compound 27a, N-(tert-butyl)-4-(2-(3-methyl-2-oxoquinoxalin-1(2H)-yl)acetamido)benzamide]
- Increase in the BAX level compared to control cells (BAX): 2.6 fold
- Protein expression (normalised to β-actin), BAX (BAX; 24 h, control = 1.00): 2.60 ± 0.20
- IC50 (HepG2 [4]): 4.5 µM
- Increase in the level of caspase-3 compared to control cells (caspase-3): 2.5 fold
- Protein expression (normalised to β-actin), Caspases-3 (caspase-3; control = 1.00): 2.51 ± 0.27
- Increase of BAX/Bcl-2 ratio compared to control cells (BAX/Bcl-2 ratio): 5 fold
- Protein expression (normalised to β-actin), BAX/Bcl-2 ratio (BAX/Bcl-2 ratio; 24 h, control = 1.00): 5.03 ± 0.36
- Increase in the level of caspase-9 compared to control cells (caspase-9): 3.43 fold
- Protein expression (normalised to β-actin), Caspases-9 (caspase-9; control = 1.00): 3.43 ± 0.49
- IC50 (MCF-7 [5]): 7.7 µM
- Accumulation of cells at G2/M compared to control cells (HepG2 cells [6]): 3.5 fold
- Cell cycle distribution %G1 (HepG2 cells [6]): 37.66% and 37.66 ± 2.16 %
- Cell cycle distribution %G2/M (HepG2 cells [6]): 34.14% and 34.14 ± 1.22 %
- Cell cycle distribution %S (HepG2 cells [6]): 26.96% and 26.96 ± 1.55%
- Cell cycle distribution %Sub-G1 (HepG2 cells [6]): 1.24% and 1.24 ± 0.17%
- IC50 (human VEGFR-2 [7]): 0.0032 µM
- Apoptosis, Early (right bottom) (HepG2 cells [8]): 40.47% and 40.47 ± 2.55 %
- Apoptosis, Late (right top) (HepG2 cells [8]): 0.35% and 0.35 ± 0.06%
- Increase of apoptosis compared to untreated cells (HepG2 cells [8]): about five times
- Necrosis (left top) (HepG2 cells [8]): 0.20 ± 0.04
- Viable (left bottom) (HepG2 cells [8]): 58.98 ± 2.64
- IC50 [9]: 19.9 µM
- Cytotoxic activity against cancer HepG2 cell line more than against normal hepatic cells (primary rat hepatocytes): 4.5 fold
- Decrease in the Bcl-2 level compared to control cells (Bcl-2): 2 fold
- Protein expression (normalised to β-actin), Bcl-2 (Bcl-2; 24 h, control = 1.00): 0.52 ± 0.02

SMILES: Cc1ccccc1NC(=O)c1ccc(NC(=O)CSc2nc3ccccc3nc2C)cc1 [Compound 30f, 4-(2-((3-Methylquinoxalin-2-yl)thio)acetamido)-N-(o-tolyl)benzamide]
- IC50 (HepG2 [4]): 10.7 µM
- IC50 (MCF-7 [5]): 18.1 µM
- IC50 (human VEGFR-2 [7]): 0.0049 µM
- IC50 [9]: 15.7 µM
- Cytotoxic activity against cancer HepG2 cell line more than against normal hepatic cells (primary rat hepatocytes): 1.5 fold
